# Tested on: eyelashes of subjects with idiopathic hypotrichosis
# Assay: Digital image analysis of upper eyelash length, thickness, darkness, idiopathic hypotrichosis
# Assay type: in vivo, human
# Details: for Upper eyelash length, mean % change from baseline / Upper eyelash length, mean value / Upper eyelash thickness, mean % change from baseline / Upper eyelash thickness, mean value / Upper eyelash darkness, mean % change from baseline / Upper eyelash darkness, mean value: Bim/Veh group (n = 60); for Upper eyelash darkness, mean % change from baseline / Upper eyelash darkness, mean percent change from baseline: negative = darker; for Upper eyelash darkness, mean value: scale 0 black to 255 white
# Protocol: Secondary efficacy measures were based on digital image analysis (DIA) of eyelash characteristics: upper eyelash length (millimeters [mm]), thickness (mm^2), and darkness (intensity units). For darkness, a negative value in terms of change from baseline indicated darker eyelashes. Upper eyelash characteristics of length, thickness, and darkness were determined by a validated DIA method. The reliability and reproducibility of DIA have been verified within the acceptance criteria of 0.05% or less of mean coefficient of variance. The principal variables for the secondary efficacy assessments are: change from baseline in upper eyelash length (mm), average progressive eyelash thickness (mm^2), and eyelash darkness (intensity units) at months 4, 6, 10, and 12 or early termination. Descriptive statistics of the raw value at baseline and percent change from baseline at follow-up visits were summarized by treatment group for each principal measure of the 3 secondary variables of eyelash characteristics. Between-group comparisons were performed using a van Elteren test stratified by hypotrichosis etiology.
# [1] = Month 10 (vehicle since month 6)
# [2] = Month 12 (vehicle since month 6)
# [3] = Month 4, all bimatoprost TP1 (n = 179)
# [4] = Month 4, all bimatoprost TP1 (n = 179), listed as Bimatoprost
# [5] = Month 6, all bimatoprost TP1 (n = 179)
# [6] = Month 6, group treated up to 12 months with bimatoprost
# [7] = Month 12, group treated up to 12 months with bimatoprost
smiles,measurement,setting,value
"CCNC(=O)CCC/C=C\C[C@@H]1[C@@H](/C=C/[C@@H](O)CCc2ccccc2)[C@H](O)C[C@@H]1O [Bim 0.03%, bimatoprost]","Upper eyelash length, mean % change from baseline",Month 4 (on bimatoprost),21.01%
same,"Upper eyelash length, mean value",Month 4 (on bimatoprost),6.8 mm
same,"Upper eyelash thickness, mean % change from baseline",Month 4 (on bimatoprost),73.7%
same,"Upper eyelash thickness, mean value",Month 4 (on bimatoprost),1.2 mm^2
same,"Upper eyelash darkness, mean % change from baseline",Month 4 (on bimatoprost),−16.01%
same,"Upper eyelash darkness, mean value",Month 4 (on bimatoprost),126.3 intensity units
same,"Upper eyelash length, mean % change from baseline",Month 6 (on bimatoprost),25.70%
same,"Upper eyelash length, mean value",Month 6 (on bimatoprost),7.1 mm
same,"Upper eyelash thickness, mean % change from baseline",Month 6 (on bimatoprost),79.9%
same,"Upper eyelash thickness, mean value",Month 6 (on bimatoprost),1.2 mm^2
same,"Upper eyelash darkness, mean % change from baseline",Month 6 (on bimatoprost),−14.89%
same,"Upper eyelash darkness, mean value",Month 6 (on bimatoprost),128.0 intensity units
same,"Upper eyelash length, mean % change from baseline",[1],6.46%
same,"Upper eyelash length, mean value",[1],6.0 mm
same,"Upper eyelash thickness, mean % change from baseline",[1],13.0%
same,"Upper eyelash thickness, mean value",[1],0.8 mm^2
same,"Upper eyelash darkness, mean % change from baseline",[1],−3.97%
same,"Upper eyelash darkness, mean value",[1],143.7 intensity units
same,"Upper eyelash length, mean % change from baseline",[2],4.62%
same,"Upper eyelash length, mean value",[2],5.9 mm
same,"Upper eyelash thickness, mean % change from baseline",[2],15.9%
same,"Upper eyelash thickness, mean value",[2],0.9 mm^2
same,"Upper eyelash darkness, mean % change from baseline",[2],−4.29%
same,"Upper eyelash darkness, mean value",[2],143.6 intensity units
same,"Upper eyelash length, mean percent change from baseline",[3],22.90%
same,"Upper eyelash thickness, mean percent change from baseline",[3],95.90%
same,"Upper eyelash length, mean percent change from baseline",[4],22.9 (177) %
same,"Upper eyelash thickness, mean percent change from baseline",[4],95.9 (150) %
same,"Upper eyelash darkness, mean percent change from baseline",[3],−15.70%
same,"Upper eyelash darkness, mean percent change from baseline",[4],−15.7 (150) %
same,"Upper eyelash length, mean percent change from baseline",[5],26.0 (177) %
same,"Upper eyelash thickness, mean percent change from baseline",[5],91.4 (150) %
same,"Upper eyelash darkness, mean percent change from baseline",[5],−14.1 (150) %
same,"Eyelash length, mean percent increase from baseline",[6],26.17%
same,"Eyelash length, median percent increase from baseline",[6],22.4%
same,Increase in mean eyelash length from baseline,[6],1.44 mm
same,"Eyelash length, mean percent increase from baseline",[7],25.86%
same,"Eyelash length, median percent increase from baseline",[7],22.63%
